Experimental data published in the supplement of paper PMC10307832.

Tests used:
Test in all cases: relative viability (nuclei count vs DMSO), 5 days (fraction); higher = more cells survive
SGI-1776 + Tozasertib = compound: CN1CCC(CNc2ccc3ncc(-c4cccc(OC(F)(F)F)c4)n3n2)CC1 [SGI-1776] + Cc1cc(Nc2cc(N3CCN(C)CC3)nc(Sc3ccc(NC(=O)C4CC4)cc3)n2)n[nH]1 [Tozasertib] (partner 0.1 µM)
Procedure, shortened: (§1)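 One day after seeding in 1536-well plates, lung cancer cell lines were dosed by pin tool. Dosing was either single-drug or a fixed anchor-drug dose plus five library-drug doses (not always all listed) in √10 steps. After 5 days, nuclei were stained in one fix-and-stain step and counted on 4× images, and relative viability is the nuclei count of treated wells over that of vehicle wells, given as the median of duplicate plates.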

Entinostat + AZD7762 = compound: Nc1ccccc1NC(=O)c1ccc(CNC(=O)OCc2cccnc2)cc1 [Entinostat] + NC(=O)Nc1cc(-c2cccc(F)c2)sc1C(=O)N[C@H]1CCCNC1 [AZD7762] (partner 0.2 µM)
Procedure, shortened: as §1

Entinostat + Navitoclax = compound: Nc1ccccc1NC(=O)c1ccc(CNC(=O)OCc2cccnc2)cc1 [Entinostat] + CC1(C)CCC(c2ccc(Cl)cc2)=C(CN2CCN(c3ccc(C(=O)NS(=O)(=O)c4ccc(N[C@H](CCN5CCOCC5)CSc5ccccc5)c(S(=O)(=O)C(F)(F)F)c4)cc3)CC2)C1 [Navitoclax] (partner 0.5 µM)
Procedure, shortened: as §1

[1] = compound: C1COCCN1C2=NC(=NC3=C2OC4=C3C=CC=N4)C5=CC(=CC=C5)NC(=O)C6=CN=C(C=C6)N + CC(=O)c1c(C)c2cnc(Nc3ccc(N4CCNCC4)cn3)nc2n(C2CCCC2)c1=O [Palbociclib] (partner 0.5 µM)
Procedure, shortened: as §1

| Cell Line | relative viability (SGI-1776 + Tozasertib; first compound 0.08 µM) | relative viability (SGI-1776 + Tozasertib; first compound 0.8 µM) | relative viability (SGI-1776 + Tozasertib; first compound 2.53 µM) | relative viability (SGI-1776 + Tozasertib; first compound 8 µM) | relative viability (Entinostat + AZD7762; first compound 0.02 µM) | relative viability (Entinostat + AZD7762; first compound 0.06325 µM) | relative viability (Entinostat + AZD7762; first compound 0.2 µM) | relative viability (Entinostat + AZD7762; first compound 0.6325 µM) | relative viability (Entinostat + AZD7762; first compound 2 µM) | relative viability (Entinostat + Navitoclax; first compound 0.02 µM) | relative viability (Entinostat + Navitoclax; first compound 0.06325 µM) | relative viability (Entinostat + Navitoclax; first compound 0.2 µM) | relative viability (Entinostat + Navitoclax; first compound 0.6325 µM) | relative viability (Entinostat + Navitoclax; first compound 2 µM) | relative viability ([1]; first compound 0.02 µM) | relative viability ([1]; first compound 0.06325 µM) | relative viability ([1]; first compound 0.2 µM) | relative viability ([1]; first compound 0.6325 µM) | relative viability ([1]; first compound 2 µM) |
| --- | --- | --- | --- | --- | --- | --- | --- | --- | --- | --- | --- | --- | --- | --- | --- | --- | --- | --- | --- |
| ChaGo-K-1 | 0.242 | 0.22 | 0.223 | 0.177 | 0.872 | 0.861 | 0.962 | 0.897 | 0.692 | 1.23 | 1.04 | 1.11 | 0.783 | 0.679 | 0.994 | 0.983 | 0.968 | 0.835 | 0.502 |
| EBC-1 |  |  |  |  |  |  |  |  |  | 0.422 | 0.326 | 0.287 | 0.184 | 0.15 |  |  |  |  |  |
| EKVX | 0.4 | 0.398 | 0.307 | 0.235 | 0.763 | 0.645 | 0.645 | 0.416 | 0.265 | 0.896 | 0.835 | 0.899 | 0.643 | 0.457 | 0.357 | 0.393 | 0.353 | 0.373 | 0.438 |
| EMC-BAC-2 | 0.285 | 0.257 | 0.212 | 0.224 | 1.17 | 0.987 | 0.881 | 0.441 | 0.457 | 1.21 | 1.15 | 1.25 | 0.968 | 0.642 | 0.54 | 0.545 | 0.501 | 0.498 | 0.456 |
